# From PubChem BioAssay (NCI)
#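 96-well plates; 48 h exposure; 5 concentrations. Endpoints by linear interpolation between flanking doses. Not reached: highest tested concentration assigned. GI50 marks 50% less growth. TGI denotes the concentration required for complete inhibition of growth.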
# How the values were obtained:
# Assay in all cases: NCI anticancer screen, dose series, 48 h
# [1] = tested on: 786-0 renal
# [2] = tested on: A498 renal
# [3] = tested on: A549 NSCLC
# [4] = tested on: ACHN renal
# [5] = tested on: BT-549 breast
# [6] = tested on: CAKI-1 renal
# [7] = tested on: CCRF-CEM leukemia
# [8] = tested on: COLO 205 colon
# [9] = tested on: DU-145 prostate
# [10] = tested on: EKVX NSCLC
# [11] = tested on: HCC-2998 colon
# [12] = tested on: HCT-116 colon
# [13] = tested on: HCT-15 colon
# [14] = tested on: HL-60(TB) leukemia
# [15] = tested on: HOP-62 NSCLC
# [16] = tested on: HOP-92 NSCLC
# [17] = tested on: HS 578T breast
# [18] = tested on: HT29 colon
# [19] = tested on: IGROV1 ovarian
# [20] = tested on: K-562 leukemia
# [21] = tested on: KM12 colon
# [22] = tested on: LOX IMVI melanoma
# [23] = tested on: M14 melanoma
# [24] = tested on: MALME-3M melanoma
# [25] = tested on: MCF7 breast
# [26] = tested on: MDA-MB-231 breast
# [27] = tested on: MDA-MB-435
# [28] = tested on: MDA-MB-468 breast
# [29] = tested on: MOLT-4 leukemia
# [30] = tested on: NCI-H226 lung
# [31] = tested on: NCI-H23 lung
# [32] = tested on: NCI-H460 lung
# [33] = tested on: NCI-H522 lung
# [34] = tested on: NCI/ADR-RES ovarian
# [35] = tested on: OVCAR-3 ovarian
# [36] = tested on: OVCAR-4 ovarian
# [37] = tested on: OVCAR-5 ovarian
# [38] = tested on: OVCAR-8 ovarian
# [39] = tested on: PC-3 prostate
# [40] = tested on: RPMI-8226 leukemia
# [41] = tested on: RXF 393 renal
# [42] = tested on: SF-268 CNS
# [43] = tested on: SF-295 CNS
# [44] = tested on: SF-539 CNS
# [45] = tested on: SK-MEL-2 melanoma
# [46] = tested on: SK-MEL-28 melanoma
# [47] = tested on: SK-MEL-5 melanoma
# [48] = tested on: SK-OV-3 ovarian
# [49] = tested on: SN12C renal
# [50] = tested on: SNB-19 CNS
# [51] = tested on: SNB-75 CNS
# [52] = tested on: SR leukemia
# [53] = tested on: SW-620 colon
# [54] = tested on: T-47D breast
# [55] = tested on: TK-10 renal
# [56] = tested on: U251 CNS
# [57] = tested on: UACC-257 melanoma
# [58] = tested on: UACC-62 melanoma
# [59] = tested on: UO-31 renal
smiles,measurement,setting,value
N#Cc1ccc(-c2nn(-c3ccc(C(=O)O)cc3)cc2CNc2cc(Cl)cc(C(F)(F)F)c2)cc1,GI50,[1],14.1 µM
same,TGI,[1],32 µM
same,GI50,[2],15.8 µM
same,TGI,[2],41 µM
same,GI50,[3],7.98 µM
same,TGI,[3],32.1 µM
same,GI50,[4],6.42 µM
same,TGI,[4],52.7 µM
same,GI50,[5],11.3 µM
same,TGI,[5],31.1 µM
same,GI50,[6],10.2 µM
same,TGI,[6],45.2 µM
same,GI50,[7],4.2 µM
same,TGI,[7],20.8 µM
same,GI50,[8],14 µM
same,TGI,[8],58.6 µM
same,GI50,[9],11.9 µM
same,TGI,[9],> 100 µM
same,GI50,[10],5.47 µM
same,TGI,[10],30.8 µM
same,GI50,[11],6.46 µM
same,TGI,[11],19.8 µM
same,GI50,[12],4.46 µM
same,TGI,[12],17.1 µM
same,GI50,[13],3.93 µM
same,TGI,[13],15.8 µM
same,GI50,[14],6.31 µM
same,TGI,[14],31.8 µM
same,GI50,[15],11.7 µM
same,TGI,[15],28.3 µM
same,GI50,[16],3.48 µM
same,TGI,[16],15 µM
same,GI50,[17],7.95 µM
same,TGI,[17],36.1 µM
same,GI50,[18],13.5 µM
same,TGI,[18],38.2 µM
same,GI50,[19],10.8 µM
same,TGI,[19],29.3 µM
same,GI50,[20],3.71 µM
same,TGI,[20],> 100 µM
same,GI50,[21],5.71 µM
same,TGI,[21],19.3 µM
same,GI50,[22],5.95 µM
same,TGI,[22],20.3 µM
same,GI50,[23],10.1 µM
same,TGI,[23],35.1 µM
same,GI50,[24],6.44 µM
same,TGI,[24],31.9 µM
same,GI50,[25],5.16 µM
same,TGI,[25],26 µM
same,GI50,[26],12.3 µM
same,TGI,[26],37 µM
same,GI50,[27],7.05 µM
same,TGI,[27],56.4 µM
same,GI50,[28],6.83 µM
same,TGI,[28],38.8 µM
same,GI50,[29],4.26 µM
same,TGI,[29],22.9 µM
same,GI50,[30],10.9 µM
same,TGI,[30],30.6 µM
same,GI50,[31],5.19 µM
same,TGI,[31],19.4 µM
same,GI50,[32],6.67 µM
same,TGI,[32],21 µM
same,GI50,[33],3.18 µM
same,TGI,[33],12.1 µM
same,GI50,[34],7.45 µM
same,TGI,[34],26.8 µM
same,GI50,[35],4.98 µM
same,TGI,[35],18.6 µM
same,GI50,[36],7 µM
same,TGI,[36],> 100 µM
same,GI50,[37],18.5 µM
same,TGI,[37],36 µM
same,GI50,[38],7.28 µM
same,TGI,[38],27.8 µM
same,GI50,[39],7 µM
same,TGI,[39],35.1 µM
same,GI50,[40],3.87 µM
same,TGI,[40],63.5 µM
same,GI50,[41],10.3 µM
same,TGI,[41],24.7 µM
same,GI50,[42],14.3 µM
same,TGI,[42],67 µM
same,GI50,[43],4.79 µM
same,TGI,[43],22.9 µM
same,GI50,[44],11.4 µM
same,TGI,[44],24 µM
same,GI50,[45],2.96 µM
same,TGI,[45],9.48 µM
same,GI50,[46],4.6 µM
same,TGI,[46],28.3 µM
same,GI50,[47],3.41 µM
same,TGI,[47],13.5 µM
same,GI50,[48],15.1 µM
same,TGI,[48],37.9 µM
same,GI50,[49],6.89 µM
same,TGI,[49],33 µM
same,GI50,[50],7.61 µM
same,TGI,[50],33.7 µM
same,GI50,[51],15.5 µM
same,TGI,[51],45.6 µM
same,GI50,[52],3.77 µM
same,TGI,[52],> 100 µM
same,GI50,[53],9.22 µM
same,TGI,[53],25 µM
same,GI50,[54],3.8 µM
same,TGI,[54],> 100 µM
same,GI50,[55],17.2 µM
same,TGI,[55],> 100 µM
same,GI50,[56],7.26 µM
same,TGI,[56],32.6 µM
same,GI50,[57],7.02 µM
same,TGI,[57],40.2 µM
same,GI50,[58],3.64 µM
same,TGI,[58],14.4 µM
same,GI50,[59],4.34 µM
same,TGI,[59],22 µM
